# Source: US20210403860A1 (priority 2018, published 2021)
# Several values for one entry are separate records, joined by “and”; a condition that tells them apart may be missing. Equal entries are not always repeated. Where two headings read alike, the source gives them in different places.
# Assays:
# Ca. L. asiaticus [1] = assay type: cell-based; conditions: 10 mM glucose and 100 μg/ml amikacin
# Ca. L. asiaticus [2] = conditions: cited from earlier work
# [3] = tested on: Lysinibacillus mangiferihumi; assay type: cell-based
# Comamonas terrigena = assay type: cell-based
# Paenibacillus silvae = assay type: cell-based
# Clostridium argentinense = assay type: cell-based
# [4] = tested on: Stenotrophomonas bentonitica; assay type: cell-based
# Pantoea cypripedii = assay type: cell-based
# Ca. L. asiaticus [5] = assay type: cell-based, Candidatus Liberibacter asiaticus (strain psy62); conditions: for fold change in Ca. L. asiaticus GE: 7 days
# [6] = tested on: Flavobacterium acidificum; assay type: cell-based
# Bacillus cereus [7] = assay type: cell-based
# Pseudomonas putida = assay type: cell-based
# Brevibacillus gelatini = assay type: cell-based
# Bacillus cereus [8] = conditions: cited from earlier work
# Pseudomonadaceae = assay type: cell-based
# Bacillaceae = assay type: cell-based
compound,measurement,setting,value
NCC[C@H](O)C(=O)N[C@@H]1C[C@H](N)[C@@H](O[C@H]2O[C@H](CN)[C@@H](O)[C@H](O)[C@H]2O)[C@H](O)[C@H]1O[C@H]1O[C@H](CO)[C@@H](O)[C@H](N)[C@H]1O [amikacin],"Ca. L. asiaticus GE, day 3",Ca. L. asiaticus [1]; 10% O2 (FIG. 13),1.15×10^5±2.8×10^4 GE
same,fold potentiation in Ca. L. asiaticus DNA content vs glucose alone,Ca. L. asiaticus [1]; three days,3.03 fold
same,overall fold increase in GE compared to starting material (d0),Ca. L. asiaticus [1]; three days,11.1 fold
same,activity against / sensitivity of Ca. L. asiaticus,Ca. L. asiaticus [2],does not appear to be sensitive
C[C@H]1O[C@H](O[C@H]2[C@H](O)[C@@H](O)[C@@H](O)[C@H](O)[C@@H]2O)[C@@H](N)C[C@@H]1NC(=N)C(=O)O [kasugamycin],proportion of OTU 4,[3],0.000
same,proportion of OTU 6,Comamonas terrigena,0.000
same,proportion of OTU 8,Paenibacillus silvae,0.000
same,proportion of OTU 5,Clostridium argentinense; Kag 0.25 μg/ml,0.030
same,proportion of OTU 2,[4],0.136
same,proportion of OTU 7,Pantoea cypripedii,0.005
same,enhancement of Ca. L. asiaticus growth,Ca. L. asiaticus [5]; kasugamycin treatment,did not enhance
same,proportion of OTU 10,[6],0.056
same,proportion of OTU 3,Bacillus cereus [7],0.001
same,proportion of OTU 1,Pseudomonas putida,0.599
same,proportion of OTU 9,Brevibacillus gelatini,0.001
[H]/N=C(/N)N[C@H]1[C@H](O)[C@@H](O)[C@H](O[C@@H]2O[C@@H](C)[C@](O)(C=O)[C@H]2O[C@@H]2O[C@@H](CO)[C@H](O)[C@@H](O)[C@@H]2NC)[C@@H](N/C(N)=N\[H])[C@@H]1O [streptomycin],proportion of OTU 4,[3],0.000
same,concentration sub-inhibitory to Bacillus cereus,Bacillus cereus [8],< 2.9 µg/mL
same,decrease of proportion of Pseudomonadaceae compared to non-antibiotic samples,Pseudomonadaceae,5.5 times and 9.8 times
same,proportion of OTU 8,Paenibacillus silvae,0.000
same,proportion of OTU 5,Clostridium argentinense; Str 0.02 μg/ml,0.002
same,proportion of OTU 5,Clostridium argentinense; Str 0.05 μg/ml,0.007
same,proportion of OTU 5,Clostridium argentinense; Str 0.5 μg/ml,0.154
same,proportion of OTU 5,Clostridium argentinense; Str 1.00 μg/ml,0.131
same,proportion of OTU 5,Clostridium argentinense; Str 2.00 μg/ml,0.104
same,fold change in Ca. L. asiaticus GE,"Ca. L. asiaticus [5]; 0.02 μg/ml streptomycin, vs non-antibiotic control",5.56±0.15 fold and ~6 fold
same,Ca. L. asiaticus growth compared to untreated cultures,Ca. L. asiaticus [5]; streptomycin >0.5 μg/ml,reduced
same,proportion of OTU 10,[6],0.000
CN[C@H](CC(C)C)C(=O)N[C@H]1C(=O)N[C@@H](CC(N)=O)C(=O)N[C@H]2C(=O)N[C@H]3C(=O)N[C@H](C(=O)N[C@H](C(=O)O)c4cc(O)cc(O)c4-c4cc3ccc4O)[C@H](O)c3ccc(c(Cl)c3)Oc3cc2cc(c3O[C@@H]2O[C@H](CO)[C@@H](O)[C@H](O)[C@H]2O[C@H]2C[C@](C)(N)[C@H](O)[C@H](C)O2)Oc2ccc(cc2Cl)[C@H]1O [vancomycin],proportion of OTU 8,Paenibacillus silvae,0.000
same,proportion of OTU 5,Clostridium argentinense; Van 25 μg/ml,0.120
same,proportion of OTU 5,Clostridium argentinense; Van 35 μg/ml,0.101
same,proportion of OTU 5,Clostridium argentinense; Van 50 μg/ml,0.071
same,proportion of OTU 5,Clostridium argentinense; Van 75 μg/ml,0.039
same,proportion of OTU 5,Clostridium argentinense; Van 100 μg/ml,0.004
same,fold change in Ca. L. asiaticus GE,"Ca. L. asiaticus [5]; 50 μg/ml vancomycin, vs non-antibiotic control",7.35±0.27 fold
same,proportion of OTU 1,Pseudomonas putida,0.479 and 0.469 and 0.398 and 0.318 and 0.527
same,proportion of OTU 9,Brevibacillus gelatini,0.000
polymyxin B,proportion of OTU 4,[3],0.000
same,reads that were Bacillaceae members,Bacillaceae,70.7%
same,concentration sub-inhibitory to Bacillus cereus,Bacillus cereus [8],< 0.65 µg/mL
same,decrease of proportion of Pseudomonadaceae compared to non-antibiotic samples,Pseudomonadaceae,30.5 times
same,proportion of OTU 8,Paenibacillus silvae,0.000
same,proportion of OTU 5,Clostridium argentinense; Pmb 0.5 μg/ml,0.194
same,proportion of OTU 5,Clostridium argentinense; Pmb 2 μg/ml,0.001
same,proportion of OTU 5,Clostridium argentinense; Pmb 4 μg/ml,0.011
same,fold change in Ca. L. asiaticus GE,"Ca. L. asiaticus [5]; 2 μg/ml polymyxin B, vs non-antibiotic control",2.28±0.15 fold
same,fold change in Ca. L. asiaticus GE,"Ca. L. asiaticus [5]; 4 μg/ml polymyxin B, vs non-antibiotic control",4.54±0.83 fold
same,fold change in Ca. L. asiaticus GE,"Ca. L. asiaticus [5]; <1 μg/ml polymyxin B, vs untreated cultures",0.03±0.13 fold
same,activity against / sensitivity of Ca. L. asiaticus,Ca. L. asiaticus [2],not active
